Tests used:
[1] = tested on: PBMCs from healthy donors; assay: In vitro IFNγ ELISPOT screening for immune responses to TGFb-1 peptides; type: cell-based, human; conditions: for Positive Donors (out of 14): donors with significant response: Fisher test <0.01, ratio peptide:control >2, background subtracted spots >25; for Median Spots: median of background subtracted average spots for each donor across all 14 donors, 7 days after peptide stimulation
Procedure: FIG. 6. IFNγ ELISPOT identifies strong and frequent immune responses. Immune responses to TGFb-1 peptides were identified in PBMCs from 14 healthy donors. PBMCs were stimulated with the indicated TGFb-1 peptides and responses were analyzed after seven days by IFNγ ELISPOT. Significant responses (*) were defined by a Fisher exact P value<0.01, a ratio of peptide to control spots>2, and background subtracted spots>25. Peptides that elicited responses in the greatest number of donors were subsequently tested for the specificity of the response to TGFb-1.
(§1) For in vitro ELISPOT, peripheral blood […] cells (PBMCs) from healthy donors were pulsed with 20 μM of TGFb-derived peptides and 20 U/ml IL-2 in 24-well plates for 7 days before being used in an ELISPOT assay. The cells were placed in 96-well nitrocellulose ELISPOT plates (MultiScreen IP Filter Plate, MSIPN4W50; Millipore) pre-coated with interferon gamma (IFNγ) capture antibody (Mabtech). TGFb peptides are added to a final concentration of 5 μM, control stimulation (DMSO) added to control wells and plates are incubated at 37° C. for 16-20 hours. After the incubation the cells were washed off and secondary biotinylated Ab (Mabtech) was added for 2 hours at room temperature. Unbound secondary antibody was washed off and streptavidin conjugated alkaline phosphatase (AP) (Mabtech) was added for 1 hour at room temperature. Unbound conjugated enzyme was washed off and the assay was developed by adding BCIP/NBT substrate (Mabtech). Developed ELISPOT plates were analysed on CTL ImmunoSpot S6 Ultimate-V analyzer using Immunospot software v5.1.
(§2) In order to identify whether the low homology peptides selected based on sequence alignment were able to elicit immune responses in humans, the IFNγ ELISPOT assay was used. PBMCs from a total of 14 healthy donors were used to screen for immune responses. PBMCs were exposed to each peptide individually to induce a peptide-specific immune response and proliferation of peptide-specific T cells. Seven days later, the frequency of peptide-specific T cells were assayed by IFNγ ELISPOT. IFNγ ELISPOT identified several peptides that elicited strong (number of spots) and frequent (number of donors) immune responses, as shown in FIG. 6. Five peptides were selected on this basis (see Table 4). These five peptides were subsequently assayed for TGFb-1-selectivity by assaying for cross-reactive immune responses to TGFb-2 and TGFb-3 peptides in the IFNγ ELISPOT assay, as shown in FIG. 7 and FIG. 8.

[2] = tested on: PBMCs from healthy donors; assay: IFNγ ELISPOT recall assay for cross-reactive responses to homologous TGFb-2 and TGFb-3 peptides; type: cell-based, human; conditions: for TGFb-1 selectivity / cross-reactivity of IFNγ ELISPOT immune response to homologous TGFb-2 and TGFb-3 peptides: donor PBMCs stimulated with TGFb-1 peptide, recall after seven days
Procedure: FIG. 7A-B. IFNγ ELISPOT to identify TGFb-1-selective immune responses. Donor PBMCs were stimulated with the indicated TGFb-1 peptides (Pep01-1, Pep04-1, Pep05-1, Pep08-1, Pep09-1 and Pep12-1) and after seven days were tested for a recall response by IFNγ ELISPOT assay using the same TGFb-1 peptide, or homologous TGFb-2 peptide (i.e. Pep01-2, Pep04-2, Pep05-2, Pep08-2, Pep09-2 or Pep12-2) or TGFb-3 peptide (i.e. Pep01-3, Pep04-3, Pep05-3, Pep08-3, Pep09-3 or Pep12-3). The highly homologous peptides Pep12-1, Pep12-2 and Pep12-3 were included as positive controls for detecting cross-reactive immune responses to TGFb-2 and TGFb-3. In FIG. 7A, for each peptide tested, boxplots on the left hand side correspond to responses using the same TGFb-1 peptide, boxplots in the middle correspond to responses using homologous TGFb-2 peptides and boxplots on the right hand side correspond to responses using homologous TGFb-3 peptides.
FIG. 8. IFNγ ELISPOT to identify TGFb-1-selective immune responses. The same data shown in FIG. 7 were plotted to show responses for individual peptides and donors. […] Significant responses (*) were defined by a Fisher exact P value<0.01, a ratio of peptide to control spots>2, and background subtracted spots>25.
as §1, §2

[3] = tested on: splenocytes loaded with the assay peptide (SLP1_Ib); assay: In vivo cytotoxicity assay; design: species or system mouse; conditions: analysed 18 hours after i.v. injection of labeled splenocytes
Procedure: FIG. 11. TGFb-1 vaccine promotes targeted in vivo cell killing. An in vivo cytotoxicity assay was used to compare cell killing in mice vaccinated with SLP1 versus the class I epitope SLP1_Ib (SIYMFFNT). Vaccinated mice (duplicates) were injected with differentially labeled splenocytes loaded with the assay peptide (SLP1_Ib) or a control peptide. Cell killing was determined by comparing the recovery of the splenocytes using control-peptide-loaded splenocytes as an internal control for cell recovery. OVA peptide was included as a positive control.
The in vivo cytotoxicity assay was performed by injecting peptide-loaded splenocytes from untreated donor mice into vaccinated mice. Freshly isolated splenocytes were incubated with 5 μM peptide in media (RPMI, 10% Fetal Bovine Serum) for 1 hour at 37 C. Splencoytes were loaded with assay peptide (SLP1_Ib) or control peptide (P53, AIYKKSQHM) separately. […] Cell killing was analyzed after 18 hours by isolating splenocytes from injected mice and comparing the recovery of FarRed and Violet labeled cells by flow cytometry. Specific killing of assay pulsed splenocytes was calculated as follows: […]

mice = assay: IFNγ ELISPOT assay of immune responses in mice vaccinated with synthetic long peptides; type: in vivo, mouse; conditions: mice vaccinated with SLP; recall with minimal class I / class II peptides
Procedure: FIG. 9. TGFb-1 vaccine induces robust immune responses. Mice were vaccinated with two different synthetic long peptides (SLPs) and immune responses were analyzed by IFNγ ELISPOT assay. ELISPOT responses for individual mice are shown. Results for control peptides are clearly indicated.
For the MC38 tumor study, female C56/BL6 mice (Tacomic) were vaccinated with 100 μg of peptide (SEQ ID: 31 or SEQ ID NO: 34) prepared in DMSO and diluted in water to a total volume of 50 μl (per injection) before mixing with an equal volume of Montanide ISA51 VG ST adjuvant to form an emulsion. The vaccine formulation was administered subcutaneously (s.c.) at the tail base on Days 0, 7, and 14. MC38 tumor cells (2e5 per injection) were administered s.c. in the flank on day 0. Every 3 to 4 days, tumors were measured with a Vernier caliper and the tumor volume was calculated using the formula: V=L×W2/2, where V is tumor volume, L is the length of tumor (longer axis), and W is the width of the tumor (shorter axis).
A murine TGFb-1 vaccine was developed based on synthetic long peptides (SLPs) encoding predicted MHC class I and class II epitopes (SEQ ID NOs: 31-36 in Table 1 below). Pre-clinical studies of anti-TGFb therapies often fail to show any impact on tumor growth when administered as a monotherapy.

| Sequence | Positive Donors (out of 14) [1] | Median Spots [1] | TGFb-1 selectivity / cross-reactivity of IFNγ ELISPOT immune response to homologous TGFb-2 and TGFb-3 peptides [2] | other results |
| --- | --- | --- | --- | --- |
| DINGFTTGRRGDLATIHGMNRPFLLL [Pep07-1, polypeptide fragment of human TGFb-1, positions 235-260] | 5 | 12 |  |  |
| DMPPFFPSENAIPPTFYRPYFRIVREDVSAMEKNASNLV (DMPPFFPSENAIPPTFYRPYFRIVRFDVSAMEKNASNLV) [Pep01-2, homologous polypeptide fragment of human TGFb-2, positions 107-145, reference compound] |  |  | observed only once | Number of other donors in which cross reactivity was not observed ([2]; donors tested with Pep01-1/Pep01-2 peptide combination): 7 |
| DSRDNTLQVDINGFTTGRRGDLATIHGMNRPFLLL [Pep06-1, polypeptide fragment of human TGFb-1, positions 226-260] | 5 | 25 |  |  |
| KDISHSIYMFFNTSDIREAVPEPPL [SLP1] |  |  |  | Cytotoxic activity (specific killing) toward SLP1_Ib-loaded splenocytes in vaccinated mice [3]: results in cytotoxic activity toward cells loaded with the class I peptide antigen SLP1_Ib; Immune response by IFNγ ELISPOT in vaccinated mice (mice): recognition of minimal peptides encoding class I and class II epitopes |
| LMVETHNEIYDKFKQSTHSIYMFF [Pep03-1, polypeptide fragment of human TGFb-1, positions 112-135] | 6 | 16 |  |  |
| LMVETHNEIYDKFKQSTHSIYMFFNTSEL [Pep02-1, polypeptide fragment of human TGFb-1, positions 112-140] | 6 | 28 |  |  |
| LMVETHNEIYDKFKQSTHSIYMFFNTSELREAVPEPVLLS [Pep01-1, polypeptide fragment of human TGFb-1, positions 112-151] | 9 | 67 | strong and frequent immune responses in healthy donors that are selective to TGFb-1 |  |
| REAVPEPVLLSRAELRLLRL [Pep09-1, polypeptide fragment of human TGFb-1, positions 141-160] | 7 | 37 | strong and frequent immune responses in healthy donors that are selective to TGFb-1 |  |
| REAVPEPVLLSRAELRLLRLKLKVEQHVE [Pep11-1, polypeptide fragment of human TGFb-1, positions 141-169] | 5 | 14 |  |  |
| SIYMFFNT [SLP1_Ib, TGFb-1 positions 130-137] |  |  |  | Cytotoxic activity (specific killing) toward SLP1_Ib-loaded splenocytes in vaccinated mice [3]: cytotoxic activity was higher |
| TGRRGDLATIHGMNRPFLLL [Pep08-1, polypeptide fragment of human TGFb-1, positions 241-260] | 7 | 22 | strong and frequent immune responses in healthy donors that are selective to TGFb-1 |  |
| VKRKRIEAIRGQILSKLRLA [Pep12-1, reference compound] |  |  | induced immune responses that cross-reacted with homologous TGFb-2 and TGFb-3 peptides | TGFb-1 selectivity / cross-reactivity of IFNγ ELISPOT immune response to homologous TGFb-2 and TGFb-3 peptides ([2]; listed as Pep12): displayed cross-reactivity in all donors that exhibited significant responses to the TGFb-1 homolog |
| YDKFKQSTHSIYMFFNTSEL [Pep05-1, polypeptide fragment of human TGFb-1, positions 121-140] | 7 | 23 | strong and frequent immune responses in healthy donors that are selective to TGFb-1 |  |
| YDKFKQSTHSIYMFFNTSELREAVPEPVLLS [Pep04-1, polypeptide fragment of human TGFb-1, positions 121-151] | 7 | 34 | strong and frequent immune responses in healthy donors that are selective to TGFb-1 |  |
| YMFFNTSELREAVPEPVLLSRAELRLLRLKLKVEQHVE [Pep10-1, polypeptide fragment of human TGFb-1, positions 132-169] | 5 | 8 |  |  |

Reference: patent publication US20260176313A1, “TGF-BETA-1 VACCINE” (IO BIOTECH APS, priority 2022, published 2026)
